Experimental data: PubChem BioAssay AID256 (DTP/NCI, 2004)
Where “and” joins values, the source holds several entries; their conditions need not be identical. Identical values can stand only once. Toxic doses and inconclusive results are not listed. Rule for the calls: active = survival T/C of 150% or more; inactive = T/C below 125% in these data. Residues, ends and D or L forms follow the SMILES beside them. *: point of attachment. Trt = c1ccc(C(c2ccccc2)(c2ccccc2)*)cc1; Boc = CC(C)(C)OC(=O)*

Tested on: CD2F1 mice, L1210 leukemia ip, survival T/C
Experiment: NCI In Vivo Anticancer Drug Screen. Data for tumor model L1210 Leukemia (intraperitoneal) in CD2F1 (CDF1) mice
Conditions: higher = longer survival
Summary of the method: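 Mice carrying a transplanted tumor received test compound or vehicle alone. The value is the measurement in the treated group divided by that in the vehicle-treated control group.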

[1] = endpoint: mean survival time, dose: 100.0 mg/kg/injection, schedule: Q04DX003 (ip), vehicle: Klucel (hydroxypropylcellulose) (HPC)
[2] = endpoint: mean survival time, dose: 100.0 mg/kg/injection, schedule: Q01DX001 (ip), vehicle: saline with Tween-80
[3] = endpoint: mean survival time, dose: 100.0 mg/kg/injection, schedule: Q01DX009 (ip), vehicle: saline with Tween-80
[4] = endpoint: mean survival time, dose: 200.0 mg/kg/injection, schedule: Q01DX009 (ip), vehicle: saline with Tween-80
[5] = endpoint: mean survival time, dose: 25.0 mg/kg/injection, schedule: Q01DX009 (ip), vehicle: saline with Tween-80
[6] = endpoint: mean survival time, dose: 50.0 mg/kg/injection, schedule: Q01DX009 (ip), vehicle: saline with Tween-80
[7] = endpoint: mean survival time, dose: 100.0 mg/kg/injection, schedule: Q04DX003 (ip), vehicle: saline with Tween-80
[8] = endpoint: mean survival time, dose: 200.0 mg/kg/injection, schedule: Q04DX003 (ip), vehicle: saline with Tween-80
[9] = endpoint: mean survival time, dose: 400.0 mg/kg/injection, schedule: Q04DX003 (ip), vehicle: saline with Tween-80
[10] = endpoint: mean survival time, dose: 100.0 mg/kg/injection, schedule: Q04DX003 (ip), vehicle: saline
[11] = endpoint: mean survival time, dose: 200.0 mg/kg/injection, schedule: Q04DX003 (ip), vehicle: saline
[12] = endpoint: mean survival time, dose: 400.0 mg/kg/injection, schedule: Q04DX003 (ip), vehicle: saline
[13] = endpoint: mean survival time, dose: 100.0 mg/kg/injection, schedule: Q04DX002 (ip), vehicle: saline with Tween-80
[14] = endpoint: mean survival time, dose: 200.0 mg/kg/injection, schedule: Q04DX002 (ip), vehicle: saline with Tween-80
[15] = endpoint: mean survival time, dose: 400.0 mg/kg/injection, schedule: Q01DX009 (ip), vehicle: saline with Tween-80
[16] = endpoint: mean survival time, dose: 400.0 mg/kg/injection, schedule: Q04DX002 (ip), vehicle: saline with Tween-80
[17] = endpoint: mean survival time, dose: 200.0 mg/kg/injection, schedule: Q04DX003 (ip), vehicle: Klucel (hydroxypropylcellulose) (HPC)
[18] = endpoint: mean survival time, dose: 400.0 mg/kg/injection, schedule: Q04DX003 (ip), vehicle: Klucel (hydroxypropylcellulose) (HPC)

Measured: T/C

CC(C)(C)OC(=O)NCCCCC(NC(=O)CNC(=O)C(CSC(c1ccccc1)(c1ccccc1)c1ccccc1)NC(=O)OC(C)(C)C)C(=O)O (stereo unspecified) (Boc-Cys(Trt)-Gly-Lys(Boc)-OH; configuration not given here)
inactive: endpoint: mean survival time, dose: 100.0 mg/kg/injection, schedule: Q04DX003 (ip), vehicle: saline sonified 86 % of control

NC(=O)c1c[nH]n(C2OC(CO)C(O)C2O)c1=O (stereo unspecified)
inactive: endpoint: median survival time, dose: 49.9 mg/kg/injection, schedule: Q01DX005 (ip), vehicle: saline 100 % of control | endpoint: median survival time, dose: 99.8 mg/kg/injection, schedule: Q01DX005 (ip), vehicle: saline 94 % of control | endpoint: median survival time, dose: 199.6 mg/kg/injection, schedule: Q01DX005 (ip), vehicle: saline 94 % of control

Nc1cccc(NC=O)c1
inactive: [1] 102 % of control

NNc1nc(=O)[nH]nc1SCc1ccccc1
inactive: endpoint: mean survival time, dose: 75.0 mg/kg/injection, schedule: Q01DX001 (ip), vehicle: saline 96 % of control | endpoint: mean survival time, dose: 150.0 mg/kg/injection, schedule: Q01DX001 (ip), vehicle: saline 88 % of control

COC1OC(CO)C(OC(=O)Nc2ccccc2)C(OC(=O)Nc2ccccc2)C1O (stereo unspecified)
inactive: [2] 87 % of control | endpoint: mean survival time, dose: 400.0 mg/kg/injection, schedule: Q01DX001 (ip), vehicle: saline with Tween-80 95 % of control

CC(CC(C)C(=O)O)C(=O)O (stereo unspecified)
inactive: [3] 100 % of control | [4] 105 % of control

CN(N)c1cccc2c1CCCC2
inactive: [5] 106 % of control | endpoint: mean survival time, dose: 25.0 mg/kg/injection, schedule: Q04DX003 (ip), vehicle: saline with Tween-80 97 % of control | [6] 103 % of control | endpoint: mean survival time, dose: 50.0 mg/kg/injection, schedule: Q04DX003 (ip), vehicle: saline with Tween-80 102 % of control | [3] 105 % of control | [7] 93 % of control and 102 % of control

CCCCCCCCCCCCCCCC(=O)N(CCCN)CCCN(CCCN)C(=O)CCCCCCCCCCCCCCC
inactive: [5] 97 % of control | [6] 89 % of control

O=C1C(c2ccccc2)=C(c2ccccc2)C2=CC(c3ccccc3)=C(c3ccccc3)C(c3ccccc3)C12Br (stereo unspecified)
inactive: [7] 90 % of control | [8] 90 % of control | [9] 89 % of control

O=C(N/N=C/c1ccccc1)c1cc([N+](=O)[O-])cc([N+](=O)[O-])c1
inactive: endpoint: mean survival time, dose: 100.0 mg/kg/injection, schedule: Q01DX009 (ip), vehicle: Klucel (hydroxypropylcellulose) (HPC) 94 % of control | endpoint: mean survival time, dose: 200.0 mg/kg/injection, schedule: Q01DX009 (ip), vehicle: Klucel (hydroxypropylcellulose) (HPC) 100 % of control | endpoint: mean survival time, dose: 400.0 mg/kg/injection, schedule: Q01DX009 (ip), vehicle: Klucel (hydroxypropylcellulose) (HPC) 98 % of control

CCCCCCCCCC(O)CCCCCCCCC
inactive: endpoint: mean survival time, dose: 100.0 mg/kg/injection, schedule: Q01DX009 (ip), vehicle: other 102 % of control | endpoint: mean survival time, dose: 100.0 mg/kg/injection, schedule: Q04DX003 (ip), vehicle: other 103 % of control | endpoint: mean survival time, dose: 200.0 mg/kg/injection, schedule: Q01DX009 (ip), vehicle: other 91 % of control | endpoint: mean survival time, dose: 200.0 mg/kg/injection, schedule: Q04DX003 (ip), vehicle: other 94 % of control | endpoint: mean survival time, dose: 400.0 mg/kg/injection, schedule: Q01DX009 (ip), vehicle: other 91 % of control | endpoint: mean survival time, dose: 400.0 mg/kg/injection, schedule: Q04DX003 (ip), vehicle: other 94 % of control

CC(=O)C(C)(O)C(C)(C)C (stereo unspecified)
inactive: [10] 95 % of control | [11] 93 % of control | [12] 98 % of control

Cc1c(C)c(C)c(CN2CCC(C)CC2)c(C)c1C
inactive: [5] 90 % of control | [6] 91 % of control | [13] 98 % of control | [4] 90 % of control | [14] 94 % of control | [15] 86 % of control | [16] 94 % of control

CCCCCCC(C)Oc1ccccc1Cl (stereo unspecified)
inactive: [13] 107 % of control | [14] 86 % of control | [16] 96 % of control

Fc1ccc2c(c1)CC(CBr)O2 (stereo unspecified)
inactive: [3] 100 % of control | [4] 105 % of control | [15] 96 % of control

O=C(O)C(Br)(Br)Br.[Ag]
inactive: [7] 92 % of control | [8] 89 % of control | [9] 97 % of control

c1ccc2c(CN3CC3)c[nH]c2c1
inactive: endpoint: mean survival time, dose: 22.0 mg/kg/injection, schedule: Q01DX009 (ip), vehicle: other 101 % of control | endpoint: mean survival time, dose: 25.0 mg/kg/injection, schedule: Q01DX009 (ip), vehicle: other 109 % of control | endpoint: mean survival time, dose: 33.0 mg/kg/injection, schedule: Q01DX009 (ip), vehicle: other 103 % of control | [3] 114 % of control | [4] 112 % of control

CC(=O)C1=C(O)C(CSCc2ccccc2)N(C)C1=O (stereo unspecified)
inactive: endpoint: mean survival time, dose: 75.0 mg/kg/injection, schedule: Q01DX001 (ip), vehicle: other 95 % of control | endpoint: mean survival time, dose: 150.0 mg/kg/injection, schedule: Q01DX001 (ip), vehicle: other 92 % of control | endpoint: mean survival time, dose: 300.0 mg/kg/injection, schedule: Q01DX001 (ip), vehicle: other 91 % of control

OCC(O)C(O)C(O)C(O)CO (stereo unspecified)
inactive: [3] 98 % of control | [10] 96 % of control | [8] 97 % of control | [11] 98 % of control | [15] 98 % of control | [12] 96 % of control | endpoint: median survival time, dose: 75.0 mg/kg/injection, schedule: Q01DX009 (ip), vehicle: saline with Tween-80 100 % of control | endpoint: median survival time, dose: 150.0 mg/kg/injection, schedule: Q01DX009 (ip), vehicle: saline with Tween-80 97 % of control | endpoint: median survival time, dose: 600.0 mg/kg/injection, schedule: Q01DX009 (ip), vehicle: saline with Tween-80 100 % of control

CCOC(=O)CCC(C(=O)OCC)N1C(=O)c2ccccc2C1=O (stereo unspecified)
inactive: endpoint: mean survival time, dose: 25.0 mg/kg/injection, schedule: Q04DX002 (ip), vehicle: saline with Tween-80 100 % of control | endpoint: mean survival time, dose: 50.0 mg/kg/injection, schedule: Q04DX002 (ip), vehicle: saline with Tween-80 103 % of control | [13] 100 % of control

CC(C)CCNC(=O)NS(=O)(=O)c1ccc(N)cc1
inactive: [7] 102 % of control | [8] 102 % of control | [9] 98 % of control

Cc1csc(C)[n+]1C
inactive: endpoint: mean survival time, dose: 25.0 mg/kg/injection, schedule: Q01DX009 (ip), vehicle: saline sonified 102 % of control | endpoint: mean survival time, dose: 50.0 mg/kg/injection, schedule: Q01DX009 (ip), vehicle: saline sonified 104 % of control | [2] 100 % of control | endpoint: mean survival time, dose: 100.0 mg/kg/injection, schedule: Q01DX009 (ip), vehicle: saline sonified 98 % of control

CSC(Cl)=C(Cl)Cl
inactive: [5] 97 % of control | [6] 95 % of control | [3] 97 % of control

O=C1CSc2ccccc2N1CCN1C(=O)CSc2ccccc21
inactive: [1] 90 % of control | [17] 86 % of control | [18] 86 % of control

O=C(O)CCCSc1nc2ccccc2s1
inactive: [3] 98 % of control | [7] 95 % of control | [4] 97 % of control | [8] 98 % of control | [15] 105 % of control | [9] 98 % of control

Cc1ccc(S(=O)(=O)Nc2ccc([N+](=O)[O-])cc2O)cc1
inactive: [1] 94 % of control | [17] 94 % of control | [18] 94 % of control

O=C(OCc1ccccc1)C(Cl)(Cl)Cl
inactive: [7] 107 % of control | [8] 103 % of control | [9] 96 % of control

CN(C)N=Nc1ccccc1C(=O)NNC(N)=S
inactive: endpoint: mean survival time, dose: 18.75 mg/kg/injection, schedule: Q01DX009 (ip), vehicle: Klucel (hydroxypropylcellulose) (HPC) 98 % of control and 103 % of control | endpoint: mean survival time, dose: 37.5 mg/kg/injection, schedule: Q01DX009 (ip), vehicle: Klucel (hydroxypropylcellulose) (HPC) 121 % of control and 101 % of control | endpoint: mean survival time, dose: 75.0 mg/kg/injection, schedule: Q01DX009 (ip), vehicle: Klucel (hydroxypropylcellulose) (HPC) 107 % of control and 109 % of control | endpoint: mean survival time, dose: 150.0 mg/kg/injection, schedule: Q01DX009 (ip), vehicle: Klucel (hydroxypropylcellulose) (HPC) 115 % of control and 116 % of control | endpoint: mean survival time, dose: 300.0 mg/kg/injection, schedule: Q01DX009 (ip), vehicle: Klucel (hydroxypropylcellulose) (HPC) 104 % of control and 107 % of control

CNC(=O)OC[C@H]1C2=C(C(=O)C(C)=C(N)C2=O)N2C[C@H]3N[C@H]3[C@@]12OC
inactive: endpoint: mean survival time, dose: 13.75 mg/kg/injection, schedule: Q01DX001 (ip), vehicle: carboxymethylcellulose (CMC) 113 % of control
